Assay results: patent US10208021B2, “Substituted tetrahydroisoquinoline compounds as factor XIa inhibitors” (BRISTOL-MYERS SQUIBB COMPANY, priority 2011, dated 2019)
pKi: −log10 of the molar value. Counter-ions that a name gives are not always drawn. Blank lines part the entries; values can stand above or below the molecule they belong to.

Target: purified human Factor XIa (Homo sapiens (Human), UniProt P03951)
Assay: Factor XIa chromogenic substrate (S-2366) inhibition assay
Type: biochemical
Conditions: substrate S-2366, activity ranges, Table A
Procedure, shortened: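 Ki derived from reaction velocities measured in the presence of inhibitor. Purified protease hydrolysed the chromogenic substrate; rate of absorbance change was followed over 20-180 minutes, depending on the protease.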

Chain of purified human Factor XIa (P03951 388-625): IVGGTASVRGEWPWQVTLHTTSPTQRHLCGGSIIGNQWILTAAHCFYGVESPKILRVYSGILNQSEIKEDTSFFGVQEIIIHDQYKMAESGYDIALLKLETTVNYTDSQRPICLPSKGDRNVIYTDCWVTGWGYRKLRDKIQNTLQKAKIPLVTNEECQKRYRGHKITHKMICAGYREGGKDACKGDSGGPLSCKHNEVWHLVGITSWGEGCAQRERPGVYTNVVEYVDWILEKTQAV
Chain of purified human Factor XIa (P03951 19-387 partner): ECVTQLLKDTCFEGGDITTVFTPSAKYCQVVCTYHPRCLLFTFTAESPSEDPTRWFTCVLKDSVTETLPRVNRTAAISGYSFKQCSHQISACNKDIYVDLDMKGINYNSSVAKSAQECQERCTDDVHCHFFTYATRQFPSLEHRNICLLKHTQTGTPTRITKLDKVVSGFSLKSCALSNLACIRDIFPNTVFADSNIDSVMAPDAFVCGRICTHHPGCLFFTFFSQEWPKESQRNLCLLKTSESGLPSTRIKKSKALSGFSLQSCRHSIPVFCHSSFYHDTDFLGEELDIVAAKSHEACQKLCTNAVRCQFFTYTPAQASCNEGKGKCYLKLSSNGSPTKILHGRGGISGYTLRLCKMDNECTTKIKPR

Structure (SMILES): CC(C)(C)OC(=O)c1ccc(NC(=O)[C@@H]2c3cccc(N4CCOCC4=O)c3CCN2C(=O)/C=C/c2c(-n3cnnn3)ccc(Cl)c2F)cc1 [Example 50]
pKi: 6.30 to 7.00

Structure (SMILES): CCOC(=O)c1ccc(NC(=O)[C@@H]2c3cccc(N4CCCCC4=O)c3CCN2C(=O)/C=C/c2c(-n3cnnn3)ccc(Cl)c2F)cc1 [compound 45]
pKi: 8.00 to 8.30

Structure (SMILES): CCOC(=O)C1CCN(c2cccc3c2CCN(C(=O)/C=C/c2c(-n4cnnn4)ccc(Cl)c2F)C3C(=O)Nc2ccc(C(=O)O)cc2)CC1 (racemic) [Example 136]
pKi: > 8.30

Structure (SMILES): CN1CCN(c2cccc3c2CC(C)(C)N(C(=O)/C=C/c2c(-n4cnnn4)ccc(Cl)c2F)[C@H]3C(=O)Nc2ccc(C(=O)O)cc2)CC1 [Example 202]
pKi: 6.30 to 7.00

Structure (SMILES): CCOC(=O)c1ccc(NC(=O)C2c3cccc(N4CCN(C(=O)OC(C)(C)C)CC4=O)c3CCN2C(=O)/C=C/c2c(-n3cnnn3)ccc(Cl)c2F)cc1 (racemic) [Example 56]
pKi: 8.00 to 8.30

Structure (SMILES): CC(=O)c1ccc(Cl)c(F)c1/C=C/C(=O)N1CCc2c(cccc2N2CCN(C)CC2)C1C(=O)Nc1ccc(C(=O)O)cc1 (stereo not drawn) [Example 79, (E)-4-(2-(3-(6-acetyl-3-chloro-2-fluorophenyl)acryloyl)-5-(4-methylpiperazin-1-yl)-1,2,3,4-tetrahydroisoquinoline-1-carboxamido)benzoic acid, bis-TFA Salt]
pKi: > 8.30

Structure (SMILES): CNC(=O)c1ccc(NC(=O)C2c3cccc(N4CCNCC4)c3CCN2C(=O)/C=C/c2cc(Cl)c(F)cc2-n2cnnn2)cc1 (racemic) [Example 77]
pKi: 6.30 to 7.00

Structure (SMILES): CN1CCN(c2cccc3c2CCN(C(=O)/C=C/c2c(-n4cnnn4)ccc(Cl)c2F)C3C(=O)Nc2ccc(C(=O)OC(C)(C)C)cc2)C(=O)C1 (stereo not drawn) [Example 57, (E)-tert-butyl 4-(2-(3-(3-chloro-2-fluoro-6-(1H-tetrazol-1-yl)phenyl)acryloyl)-5-(4-methyl-2-oxopiperazin-1-yl)-1,2,3,4-tetrahydroisoquinoline-1-carboxamido)benzoate]
pKi: 8.00 to 8.30

Structure (SMILES): O=C(O)c1ccc(NC(=O)C2c3cccc(N4CCC(c5ccccc5)CC4)c3CCN2C(=O)/C=C/c2c(-n3cnnn3)ccc(Cl)c2F)cc1 (racemic) [Example 95]
pKi: > 8.30

Continued, values first:

pKi: > 8.30
Structure (SMILES): O=C(O)c1ccc(NC(=O)C2c3cccc(N4CCC(N5CCCC5)CC4)c3CCN2C(=O)/C=C/c2c(-n3cnnn3)ccc(Cl)c2F)cc1 (stereo not drawn) [Example 80, (E)-4-(2-(3-(3-Chloro-2-fluoro-6-(1H-tetrazol-1-yl)phenyl)acryloyl)-5-(4-(pyrrolidin-1-yl)piperidin-1-yl)-1,2,3,4-tetrahydroisoquinoline-1-carboxamido)benzoic acid, bis TFA Salt]

pKi: > 8.30
Structure (SMILES): O=C(O)c1ccc(NC(=O)C2c3cccc(N4CCC(N5CCCCC5=O)CC4)c3CCN2C(=O)/C=C/c2c(-n3cnnn3)ccc(Cl)c2F)cc1 (racemic) [Example 130]

pKi: 8.00 to 8.30
Structure (SMILES): O=C(O)c1ccc(NC(=O)C2c3cccc(N4CCC(N5CCCC5)CC4)c3CCN2C(=O)C=Cc2c(-n3cnnn3)ccc(Cl)c2F)cc1 (stereo not drawn) [Example 88]

pKi: > 8.30
Structure (SMILES): COC1CCN(c2cccc3c2CCN(C(=O)/C=C/c2c(-n4cnnn4)ccc(Cl)c2F)C3C(=O)Nc2ccc(C(=O)O)cc2)CC1 (racemic) [Example 150]

pKi: > 8.30
Structure (SMILES): CCCCOC(=O)c1ccc(NC(=O)C2c3cccc(N4CCC(N5CCCC5)CC4)c3CCN2C(=O)C=Cc2c(-n3cnnn3)ccc(Cl)c2F)cc1 (stereo not drawn) [Example 114]

pKi: > 8.30
Structure (SMILES): O=C(Nc1ccc(F)cc1)C1c2cccc(N3CCC(N4CCCC4)CC3)c2CCN1C(=O)/C=C/c1c(-n2cnnn2)ccc(Cl)c1F (racemic) [Example 82]

pKi: > 8.30
Structure (SMILES): CCCCOC(=O)c1ccc(NC(=O)C2c3cccc(N4CCC(N5CCCC5)CC4)c3CCN2C(=O)/C=C/c2c(-n3cnnn3)ccc(Cl)c2F)cc1 (racemic) [Example 105]

pKi: 8.00 to 8.30
Structure (SMILES): O=C(N[C@H]1CC[C@H](O)CC1)C1c2cccc(N3CCC(N4CCCC4)CC3)c2CCN1C(=O)/C=C/c1c(-n2cnnn2)ccc(Cl)c1F (mixture of isomers) [Example 236]

pKi: 6.30 to 7.00
Structure (SMILES): O=C(O)CCNC(=O)C1c2cccc(N3CCC(N4CCCC4)CC3)c2CCN1C(=O)/C=C/c1c(-n2cnnn2)ccc(Cl)c1F (racemic) [Example 231]
